In this assay the target is Human immunodeficiency virus type 1 reverse transcriptase (Human immunodeficiency virus 1, UniProt Q72547). The assay is described as follows: Binding affinity to Human immunodeficiency virus 1 reverse transcriptase.

`CCC(=CCN1Cc2cc(Cl)cc3nc(S)n(c23)CC1C)CC` (centres undefined) displayed a pEC50 of 7.82.

Molecule `CC1Cn2c(S)nc3cc(Cl)cc(c32)CN1CCC1CC1` (centres undefined) had a negative-log EC50 (pEC50) of 5.66.

Molecule `C=C(C)CN1Cc2cc(Cl)cc3[nH]c(=O)n(c23)CC1C` (centres undefined) had a negative logarithm of the EC50 (pEC50) of 5.33.

As for `CC(C)=CCN1Cc2cc(C)cc3[nH]c(=S)n(c23)CC1C` (centres undefined), the pEC50 came to 6.1.

For the molecule `C=C(C)CN1Cc2cc(Cl)cc3[nH]c(=S)n(c23)CC1C` (centres undefined), the negative-log EC50 (pEC50) stood at 6.35.

`CCC(=CCN1Cc2c(Cl)ccc3[nH]c(=S)n(c23)CC1C)CC` (centres undefined) came in with a pEC50 of 8.29.

With `CC(C)=CCN1Cc2cc(Cl)c(Cl)c3nc(S)n(c23)C[C@@H]1C`, the negative logarithm of the EC50 (pEC50) was 7.6.

`CC1Cn2c(S)nc3cc(Cl)cc(c32)CN1CC1CCC1` (centres undefined) yielded a pEC50 of 7.37.

`C=CCN1Cc2cccc3[nH]c(=O)n(c23)CC1C` (centres undefined) yielded a pEC50 of 4.23.

On to `CC(C)=CCN1Cc2c(Br)ccc3nc(S)n(c23)C[C@@H]1C`, for which the negative-log EC50 (pEC50) is 8.52.

`CCC(=CCN1Cc2cc(C)cc3nc(O)n(c23)C[C@@H]1C)CC` gave a negative-log EC50 (pEC50) of 6.51.

With `CC(C)=CCN1Cc2c(C)ccc3nc(S)n(c23)C[C@@H]1C`, the negative-log EC50 (pEC50) turned out to be 7.85.

Consider `C=C(C)CN1Cc2cccc3[nH]c(=O)n(c23)CC1C` (centres undefined), for which the pEC50 turned out to be 4.85.

On to `CC(C)=CCN1Cc2cccc3[nH]c(=S)n(c23)CC1C` (centres undefined), for which the pEC50 is 7.36.

For the molecule `CC(C)=CCN1Cc2cccc3nc(O)n(c23)CC1C` (centres undefined), the pEC50 turned out to be 5.38.

Molecule `CCCN1Cc2cccc3[nH]c(=S)n(c23)CC1C` (centres undefined) gave a pEC50 of 6.62.

Turning to `CC(C)=CCN1Cc2cc(Cl)cc3nc(O)n(c23)CC1C` (centres undefined), the pEC50 was determined as 7.6.

The molecule `CC(C)=CCN1Cc2cc(Cl)cc3nc(S)n(c23)CC1C` (centres undefined) [TIBO] registered a negative-log EC50 (pEC50) of 7.04.

Molecule `CC(C)=CCN1Cc2c(Cl)ccc3[nH]c(=S)n(c23)C[C@@H]1C` [TIVIRAPINE] had a negative logarithm of the EC50 (pEC50) of 8.34.
